Results: article PMC8949366, “Synthesis of Marine Cyclopeptide Galaxamide Analogues as Potential Anticancer Agents” (Marine Drugs, 2022)
Converted amounts (≈) assume the structure as drawn. Square brackets hold non-standard residues; d marks the D form. Peptide text beside a SMILES is read from it. NMeL = CN[C@@H](CC(C)C)C(=O)O

What was measured:
MCF-7 cells [1] = assay: Annexin V-FITC/PI double staining apoptosis, flow cytometry; type: cell-based, human; details: 0, 2.5, 5, 10 µg/mL, 72 h
Description: The Annexin V-FITC/PI double staining method was used to analyze the changes in the apoptosis of MCF-7 cells after 72 h of galaxamide, Z-3, and Z-6 exposure. […] At low concentrations, the effects of all the tested compounds were not obvious. When the concentration reached 10 μg/mL, the apoptotic effects of galaxamide, Z-3, and Z-6 on MCF-7 cells were more obvious in the late apoptotic state.
(§1) The concentration of 1 × 10^4 cells per well of MCF-7 cells were seeded in 96-well plates. The cell cultures were added to the compounds with a concentration of 0, 2.5, 5, and 10 µg/mL, and incubated for 72 h. After that, 5 µL of Annexin V-fluorescein isothiocyanate (FITC) and 5 µL of PI were added for dual staining of the cells for analysis by FACS flow cytometry. Cell cycles and apoptotic cells were determined by counting the FITC-positive and PI-negative fractions.
The apoptotic cells were quantified according to the instructions provided in an Annexin V-FITC (Sigma-Aldrich, St. Louis, MO, USA) cell apoptosis assay kit. Briefly, about 1.5 × 10^5 cells were plated in 96-well plates and treated with galaxamide and its representative analogues (0, 2.5, 5, and 10 µg/mL) for 48 h. The cells were then resuspended in a […] binding buffer. Afterward, […] of annexin V-fluorescein isothiocyanate (FITC) was added, followed by incubation in darkness at room temperature for 10 min. The cells were again resuspended in […] binding buffer and stained with […] PI. The prepared cells were then analyzed using a flow cytometry (Coulter Epics Elite, Miami, FL, USA). The cells in the FITC-positive and PI-negative fractions were regarded as apoptotic cells.

MCF-7 cells [2] = assay: Hoechst 33,342 staining of nuclear morphology; type: cell-based, human; details: 72 h
Description: The morphological alteration of MCF-7 cells was analyzed by the method of Hoechst 33,342 staining (Figure 5). […] The pyknotic nuclei increased with the increasing concentration of these compounds.
[…] After that, the cell culture was washed with 1 mL of PBS and then added with 3 mL of 4% paraformaldehyde solution for 15 min. Then, 1 mL of the prepared Hoechst 33,342 staining solution was added. The resulting mixture was incubated at room temperature for 15 min in the dark.

HepG2 [3] = system: HepG2; parameters: method as in PMID 18816120; details: cited from earlier work
GRC-1 = system: GRC-1; parameters: method as in PMID 18816120; details: cited from earlier work
MCF-7 cells [4] = assay: Cell cycle distribution by propidium iodide staining / flow cytometry; type: cell-based, human; details: 0, 2.5, 5, 10 µg/mL, 72 h
Description: Therefore, propidium iodide (PI) staining method was used to further investigate the changes in the cell cycle distribution of MCF-7. In particular, MCF-7 cells were exposed to galaxamide, Z-3, and Z-6 with concentrations of 0, 2.5, 5, and 10 µg/mL for 72 h. Generally, the main effects of galaxamide, Z-3, and Z-6 on MCF-7 cells were in the G0/G1 phase. There was no obvious sub diploid peak in flow cytometry.
as §1

Hela = type: cell-based, human; details: 72 h
Description: (§2) Cell culture: MCF-7/MD-MAB-231 (human breast cancer cell line ATCC HTB-22/HTB-26), Hep G2 (human liver cancer cell line ATCC HB-8065), Hela (human cervical carcinoma cell line ATCC CCL-2), A459 (human lung cancer cell line ATCC CCL-185), and HUVEC (primary umbilical vein endothelial cell line ATCC PCS-100-010) were obtained from the Jinan Department of Pathology, University School of Medicine (Jinan University, Guangzhou, China). The cells were cultured in a Modified Eagle’s Medium (DMEM) including 10% fetal bovine serum, 1% penicillin-streptomycin, and antifungal agent, and cultured under standard conditions (5% CO2 atmosphere and temperature at 37 °C). The MTT method was used to evaluate the cytotoxicities of galaxamide and its analogues on the five cancerous cells. In this experiment, the number of regulated cells was 2 × 10^3 cells/well. Then, the cells, as well as galaxamide and its analogues of different concentrations (0, 2.5, 5, and 10 μg/mL), were seeded on a 96-well cell culture plate and cultured in a 37 °C, 5% CO2 incubator for 72 h. After that, 20 µL/well of MTT solution (5 mg/mL phosphate-buffered saline) was added and incubated for 5 h. The medium was discarded and replaced with 100 µL/well of DMSO to dissolve the formazan salt. The color intensity of the cell culture at 570 nm was measured using a microplate spectrophotometer (SpectroAma™ 250, Winooski, VT, USA).

HUVEC = type: cell-based, human; details: 72 h
Description: as §2

A549 = type: cell-based, human; details: 72 h
Description: as §2

MCF-7 = type: cell-based, human; details: 72 h
Description: as §2

HepG2 [5] = type: cell-based, human; details: 72 h
Description: as §2

MD-MBA-231 = type: cell-based, human; details: 72 h
Description: as §2

## CC(C)C[C@@H]1NC(=O)[C@H](CC(C)C)N(C)C(=O)[C@H](CC(C)C)NC(=O)[C@H](CC(C)C)N(C)C(=O)[C@H](CC(C)C)NC1=O [galaxamide] (cyclo(LL[NMeL]L[NMeL]))
MCF-7 cells [1]
  Apoptosis of MCF-7 cells (in words): apoptosis rate of MCF-7 increased with the increasing of the concentration
MCF-7 cells [2]
  Nuclear morphology of MCF-7 cells (in words): the morphology of the nuclei was significantly changed
HepG2 [3]
  Antitumor activity against HepG2 (in words): significant antitumor activities
GRC-1
  Antitumor activity against GRC-1 (in words): significant antitumor activities
MCF-7 cells [4]
  Effect on cell cycle of MCF-7 (in words): mainly blocked the growth of cells in the G0/G1 phase
Hela
  IC50 Hela: 8.53 ± 0.73 µg/mL (≈ 14.4 µM)
HUVEC
  IC50 HUVEC: >40 µg/mL
A549
  IC50 A549: 6.99 ± 0.63 µg/mL (≈ 11.8 µM)
MCF-7
  IC50 MCF-7: 11.33 ± 2.95 µg/mL (≈ 19.1 µM)
HepG2 [5]
  IC50 HepG2: 5.20 ± 0.52 µg/mL (≈ 8.76 µM)
MD-MBA-231
  IC50 MD-MBA-231: 8.73 ± 0.29 µg/mL (≈ 14.7 µM)
